According to article PMC6273978, “Synthesis and Pharmacological Evaluation of Novel Pleuromutilin Derivatives with Substituted Benzimidazole Moieties” (Molecules, 2016):
pIC50: −log10 of the molar value.

Assays:
Experiment in all cases: Cytochrome P450 inhibition cocktail assay, human liver microsomes
Assay type in all cases: in vitro ADME
[1] = molecular target: T1, CYP2D6 (Homo sapiens, UniProt P10635); details: probe dextromethorphan, metabolite dextrophan
T1 construct: Twenty microliters of human liver microsomes (final concentration of 0.3 mg/mL); from tissue; host or cells: human liver microsomes
T1 sequence (P10635 whole entry): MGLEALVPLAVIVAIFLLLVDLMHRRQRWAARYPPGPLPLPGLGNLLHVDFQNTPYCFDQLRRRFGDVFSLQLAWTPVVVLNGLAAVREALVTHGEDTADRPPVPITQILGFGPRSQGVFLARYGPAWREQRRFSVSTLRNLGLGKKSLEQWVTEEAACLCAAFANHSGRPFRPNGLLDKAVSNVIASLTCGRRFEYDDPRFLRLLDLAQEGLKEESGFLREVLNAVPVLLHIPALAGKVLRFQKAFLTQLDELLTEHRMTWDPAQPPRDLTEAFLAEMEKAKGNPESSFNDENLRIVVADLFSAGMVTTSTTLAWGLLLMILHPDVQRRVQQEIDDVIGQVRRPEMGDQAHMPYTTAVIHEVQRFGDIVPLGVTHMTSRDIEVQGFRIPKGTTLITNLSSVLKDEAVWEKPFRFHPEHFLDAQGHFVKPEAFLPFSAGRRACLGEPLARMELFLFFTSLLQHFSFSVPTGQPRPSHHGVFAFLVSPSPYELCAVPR
Procedure: (§1) The cytochrome P450 (CYP) proteins form a large family of heme proteins that catalyze many reactions involved xenobiotic metabolism and biosynthesis of cholesterol, steroids, and other lipid components. Some chemicals could affect the disposition of conventional pharmaceuticals through the inhibition of CYP450 enzymes. […] The selective probe substrate concentrations were prepared near to its respective Km value, and the compound 3 concentration range is from […].
(§2) Compound 3 was screened for its ability to inhibit cytochrome P450 using a cocktail assay described previously. Briefly, 50 μL of compound 3 was added to 96-well plates, with final concentrations of 0.05, 0.1, 0.5, 1, 10, 50, and 100 μM, respectively. Twenty microliters of human liver microsomes (final concentration of 0.3 mg/mL) and 20 μL of probe substrates (Table 3) in 0.1 M Tris were added. After preincubation at 37 °C for 10 min, 10 μL of NADPH was added (final concentration of 1 mM), and the reaction started to incubate at the same temperature for 15 min. The reactions were then quenched by the addition of 100 μL of acetonitrile with a mixture of propranolol and nadolol (50 nM) used as an internal standard. After reactions were finished, the plates were centrifuged and the supernatants were analyzed for the five metabolites (Table 3) by LC/MS/MS.

[2] = molecular target: T2, CYP1A2 (Homo sapiens, UniProt P05177); details: probe phenacetin, metabolite acetaminophen
T2 construct: Twenty microliters of human liver microsomes (final concentration of 0.3 mg/mL); from tissue; host or cells: human liver microsomes
T2 sequence (P05177 1-516): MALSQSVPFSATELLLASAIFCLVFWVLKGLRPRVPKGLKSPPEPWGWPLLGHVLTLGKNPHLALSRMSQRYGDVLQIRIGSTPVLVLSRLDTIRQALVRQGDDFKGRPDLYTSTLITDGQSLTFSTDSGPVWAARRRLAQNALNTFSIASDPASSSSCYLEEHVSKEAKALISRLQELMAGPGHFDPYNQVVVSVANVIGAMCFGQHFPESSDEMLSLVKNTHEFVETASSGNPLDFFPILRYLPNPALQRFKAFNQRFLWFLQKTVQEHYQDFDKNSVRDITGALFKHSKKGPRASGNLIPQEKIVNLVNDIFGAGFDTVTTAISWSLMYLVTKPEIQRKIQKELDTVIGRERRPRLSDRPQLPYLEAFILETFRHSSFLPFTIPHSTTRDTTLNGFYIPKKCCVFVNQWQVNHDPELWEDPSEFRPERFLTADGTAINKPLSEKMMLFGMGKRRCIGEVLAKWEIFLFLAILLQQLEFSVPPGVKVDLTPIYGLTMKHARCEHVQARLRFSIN
Procedure: as §1, §2

[3] = molecular target: T3, CYP2C9 (Homo sapiens, UniProt P11712); details: probe diclofenac, metabolite 4-OH-diclofenac
T3 construct: Twenty microliters of human liver microsomes (final concentration of 0.3 mg/mL); from tissue; host or cells: human liver microsomes
T3 sequence (P11712 whole entry): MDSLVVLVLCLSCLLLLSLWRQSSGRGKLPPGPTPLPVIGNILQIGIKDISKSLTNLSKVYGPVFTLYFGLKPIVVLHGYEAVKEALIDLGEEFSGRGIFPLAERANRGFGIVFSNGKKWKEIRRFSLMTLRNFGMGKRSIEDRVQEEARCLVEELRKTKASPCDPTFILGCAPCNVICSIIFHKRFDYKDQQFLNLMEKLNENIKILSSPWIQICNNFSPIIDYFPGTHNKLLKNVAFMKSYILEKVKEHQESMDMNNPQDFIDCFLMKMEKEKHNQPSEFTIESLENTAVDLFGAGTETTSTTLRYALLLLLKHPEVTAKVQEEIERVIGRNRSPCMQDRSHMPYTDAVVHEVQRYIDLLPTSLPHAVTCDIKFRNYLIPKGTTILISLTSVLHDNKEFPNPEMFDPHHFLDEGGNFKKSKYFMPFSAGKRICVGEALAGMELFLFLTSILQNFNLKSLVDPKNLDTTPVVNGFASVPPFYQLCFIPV
Procedure: as §1, §2

[4] = molecular target: T4, CYP2C19 (Homo sapiens, UniProt P33261); details: probe mephenytoin, metabolite 4-OH-S-mephenytoin
T4 construct: Twenty microliters of human liver microsomes (final concentration of 0.3 mg/mL); from tissue; host or cells: human liver microsomes
T4 sequence (P33261 whole entry): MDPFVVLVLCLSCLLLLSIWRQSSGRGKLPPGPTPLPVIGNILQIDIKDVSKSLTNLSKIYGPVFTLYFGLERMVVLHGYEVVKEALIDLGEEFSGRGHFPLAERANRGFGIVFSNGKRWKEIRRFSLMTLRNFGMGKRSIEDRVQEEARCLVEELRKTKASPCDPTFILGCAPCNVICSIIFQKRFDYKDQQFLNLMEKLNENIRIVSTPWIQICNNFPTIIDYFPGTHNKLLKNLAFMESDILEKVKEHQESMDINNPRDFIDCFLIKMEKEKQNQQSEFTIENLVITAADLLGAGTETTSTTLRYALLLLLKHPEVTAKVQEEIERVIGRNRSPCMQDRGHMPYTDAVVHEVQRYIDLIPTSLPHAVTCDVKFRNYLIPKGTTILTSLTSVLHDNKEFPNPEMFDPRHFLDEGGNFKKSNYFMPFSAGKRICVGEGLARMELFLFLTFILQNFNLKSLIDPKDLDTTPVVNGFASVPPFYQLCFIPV
Procedure: as §1, §2

[5] = molecular target: T5, CYP3A4 (Homo sapiens, UniProt P08684); details: probe midazolam, metabolite 1-OH-midazolam
T5 construct: Twenty microliters of human liver microsomes (final concentration of 0.3 mg/mL); from tissue; host or cells: human liver microsomes
T5 sequence (P08684 whole entry): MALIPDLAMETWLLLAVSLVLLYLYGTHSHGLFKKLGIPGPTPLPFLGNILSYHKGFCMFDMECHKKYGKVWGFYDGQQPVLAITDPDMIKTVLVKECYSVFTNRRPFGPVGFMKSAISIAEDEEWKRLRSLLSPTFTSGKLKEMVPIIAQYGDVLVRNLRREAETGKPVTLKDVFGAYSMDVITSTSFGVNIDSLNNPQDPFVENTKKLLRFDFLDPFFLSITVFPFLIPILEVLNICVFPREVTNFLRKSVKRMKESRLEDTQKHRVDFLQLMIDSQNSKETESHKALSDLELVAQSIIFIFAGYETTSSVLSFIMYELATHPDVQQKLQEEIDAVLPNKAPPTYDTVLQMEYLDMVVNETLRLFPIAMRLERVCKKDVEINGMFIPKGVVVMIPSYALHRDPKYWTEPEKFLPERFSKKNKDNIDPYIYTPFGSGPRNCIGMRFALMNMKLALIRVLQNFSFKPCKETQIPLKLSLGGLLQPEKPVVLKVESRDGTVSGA
Procedure: as §1, §2

In the case of `C=C[C@]1(C)C[C@@H](OC(=O)CSc2nc3ccc(N)cc3[nH]2)[C@]2(C)[C@H](C)CC[C@]3(CCC(=O)[C@H]32)[C@@H](C)[C@@H]1O` [Compound 3, 14-O-((5-Amino-benzimidazole-2-yl)thioacetyl) Mutilin], the pIC50 [1] was < 4.00, the pIC50 [2] was < 4.30 and the pIC50 [3] was 4.97. For the same molecule, the pIC50 [4] was < 4.30 and the pIC50 [5] was 5.77.
